Results from patent US20220387370A1, “METHODS OF REDUCING NEUROLOGICAL DAMAGE IN WILSON DISEASE PATIENTS” (priority 2019, published 2022).
“Also recorded” adds a separate entry of the source.

Columns and labels:
[1] = system: U87MG cells; settings: 750 μM chelator
Method: (§1) SHSY5Y (human neuroblastoma), U87MG (human astrocytoma), EA.hy926 (human endothelium) and HepG2 (human hepatocellular carcinoma) cells were from ATCC (Wesel, Germany) and were cultured in Dulbecco's Modified Eagle Medium (DMEM) supplemented with 10% FCS (Biochrom, Berlin, Germany) and 1% antibiotic-antimycotic (Life Technologies, Carlsbad, USA). All cells were maintained at 37° C. in a humidified atmosphere with 5% CO2.

[2] = system: U87MG cells; settings: U87MG cells subjected to respirometry (FIG. 6A), non-toxic Cu-albumin setting
Description: (§2) Afterwards, cells were trypsinized and counted.

[3] = system: primary porcine brain capillary endothelial cells (PBCECs); settings: 750 μM copper and 250 μM albumin, 750 μM ALXN1840, 48 h
Description: (§3) For transepithelial resistance (TEER) experiments (Srinivasan, B., et al., J Lab Autom, 2015. 20(2): p. 107-26), cryopreserved primary porcine brain capillary endothelial cells (PBCECs) were thawed and seeded either on rat tail collagen-coated 96-well plates for cytotoxicity testing using the Neutral red assay (Repetto, G., A. del Peso, and J. L. Zurita, Nat Protoc, 2008. 3(7): p. 1125-31) or Transwell® inserts (area: 1.12 cm^2, pore size: 0.4 μm: Corning, N.Y., USA) for barrier integrity studies. Cells were cultured for 48 hours in Earle's Medium 199 supplemented with 10% FCS, 50 U penicillin/mL, 50 μg/mL streptomycin, 100 μg/mL gentamycin and 0.7 mM I-glutamine and maintained at 37° C. in a humidified atmosphere with 5% CO2. […] TEER and capacitance values were continuously monitored over 48 h using a CellZscope device (nanoAnalytics, Münster, Germany). Only PBCEC monolayers with initial TEER values >600Ωcm^2 and capacitance values between 0.45 and 0.6 μF/cm^2 were used for permeability studies (Bornhorst, J., et al., J Biol Chem, 2012. 287(21): p. 17140-51). The barrier integrity was calculated by normalizing the TEER values to the respective start values.

[4] = system: PBCEC monolayers; assay: TEER and capacitance of PBCEC monolayers (endothelial blood-brain barrier model); format: cell-based, porcine
Description: as §3

[5] = system: SHSY5Y cells; assay: Cellular copper content (ICP-OES), SHSY5Y; format: cell-based, human; settings: 750 μM copper, 250 μM albumin, 750 μM chelator, vs Cu-albumin alone
Description: as §2

[6] = system: HepG2 cells; assay: Cu-albumin cell toxicity, CellTiter-Glo, HepG2; format: cell-based, human
Method: as §1

[7] = system: Zonula occludens-1 (ZO-1); assay: Immunocytochemistry staining of Zonula occludens-1 in PBCEC monolayers; format: cell-based, porcine; settings: 250 μM copper and 83.3 μM albumin, 250 μM chelator
Method: (§4) Total copper was determined by ICP-MS/MS as previously described (Kopp, J. F., et al., J Trace Elem Med Biol, 2019. 54: p. 221-225). For the immunocytochemical staining of tight junction proteins, confluent PBCECs cultivated on Transwell® membrane inserts were processed as previously described ([…]., et al., Archives of Toxicology 2018. 92(2): p. 823-832). Briefly, PBCECs were fixed with formaldehyde and permeabilized using Triton X-100. After blocking of unspecific binding sites by albumin, the cells were incubated with the either anti-claudin 5 or anti-ZO-1 antibody (Zytomed Systems GmbH, Berlin, Germany). Following a second blocking step, the cells were treated with an Alexa Fluor® 488 conjugated secondary antibody (Invitrogen, Molecular Probes Inc., Eugene, USA). Hoechst 33258 (Merck, Darmstadt, Germany) was used to stain cell nuclei. Subsequently, membranes were cut out of the inserts and mounted in Aqua Poly/Mount (Polysciences Inc., Washington, USA). After a solidification period of 24 hours, the samples were evaluated using a DM6 B fluorescence microscope by Leica Microsystems CMS GmbH (Wetzlar, Germany) in combination with the Leica Application Suite X.

[8] = system: tight junction protein claudin-5; assay: Immunocytochemistry staining of claudin-5 in PBCEC monolayers; format: cell-based, porcine; settings: 250 μM copper and 83.3 μM albumin, 250 μM chelator
Method: as §4

[9] = system: EA.hy926 cells; assay: Cellular copper content (ICP-OES), EA.hy926; format: cell-based, human
Description: as §2

[10] = system: HepG2, EA.hy926, U87MG and SHSY5Y cells; assay: Toxicity of the chelator itself in a copper-free setting, CellTiter-Glo; settings: without external Cu-albumin addition
Method: as §1

[11] = system: HepG2 cells; assay: Trypan blue-assessed cell viability under Cu-albumin, HepG2; format: cell-based, human; settings: 750 μM copper, 250 μM albumin, 750 μM chelator
Description: as §2

[12] = system: Atp7b^−/− rats; assay: Chelator treatment of WD rats: copper in serum, urine and feces (ICP-OES); format: in vivo, rat
Method: Control Atp7b^+/- and WD Atp7b^-/- rats were fed ad libitum with normal chow (1314; 13.89 mg Cu/kg; Altromin Spezialfutter GmbH, […], Germany) and tap water. All rats were healthy at treatment start and presented no signs of acute liver damage (serum AST <200 U/L and serum bilirubin <0.5 mg/dl). […] Untreated Atp7b^+/- and Atp7b^-/- rats served as controls. Urine and feces were collected at 24-hour intervals for which rats were housed individually in metabolic cages for 4 days. After a two-day resting period off treatment in normal cages and group housing, rats were sacrificed for serum collection.

C[N+](C)(C)CCO.C[N+](C)(C)CCO.[SH-].[SH-].[S]=[Mo]=[S] [ALXN1840, bis-choline tetrathiomolybdate]
CellTiterGlo-assessed cell viability / Cu-albumin toxicity [1]: protected
cellular copper content [2]: significantly lower
cell viability (neutral red) [3]: could be rescued
transepithelial electrical resistance (TEER) ([4]; 250 μM copper and 83.3 μM albumin, 250 μM chelator, 48 h): stable TEER values for 48 h; also recorded: could be rescued
capacitance values ([4]; Cu-albumin treatment in the absence or presence of chelator): unaffected
cellular copper content [5]: this effect was not present
CellTiterGlo-assessed cell viability / Cu-albumin toxicity ([6]; HepG2, 750 μM chelator): protected
CellTiterGlo-assessed cell viability / Cu-albumin toxicity ([6]; HepG2, low dose of chelator (250 μM)): partially rescued
ZO-1 distribution (uneven, diffuse staining upon Cu-albumin) [7]: could be fully protected; also recorded: prevented
claudin-5 staining pattern / copper-induced gap formation [8]: continuous and uninterrupted; also recorded: less pronounced
cellular copper content ([9]; EA.hy926, 750 μM copper, 250 μM albumin, 750 μM chelator, vs Cu-albumin alone): significantly decreased the copper content; also recorded: (significantly) lower copper content
cellular copper content ([9]; EA.hy926 cells subjected to respirometry (FIG. 6A), non-toxic Cu-albumin setting): significantly lower
CellTiterGlo-assessed cell viability with chelator alone [10]: becomes toxic at elevated concentrations; also recorded: dose-dependent reduction
Trypan blue-assessed cell viability / copper-related cell toxicity [11]: rescued HepG2 cells
fecal copper excretion ([12]; during treatment): unchanged
urinary copper excretion ([12]; during treatment, urine collected over 24 h): lack of urinal copper excretion
serum copper levels ([12]; i.p. once daily for 4 consecutive days (ALXN1840 2.5 mg/kg bw, DPA 100 mg/kg bw), serum at sacrifice after resting period): significantly increased; also recorded: increased serum copper levels
net copper excretion (urine and feces) ([12]; observation period of 96 hours): no profoundly elevated net copper excretion
